# Experimental data taken from US8309550B2, “Kinase inhibitors and their use as pharmaceutical agents” (Shanghai Genomics, Inc., priority 2011, dated 2012).
# Read-outs that look alike come from different tables or passages of the source.
# Key:
# CDK9T1 = CDK9T1 (Homo sapiens, UniProt P50750); assay: Kinase assay CDK9T1 (Table I); assay type: biochemical; details: read-out: Kinase inhibition, IC50 CDK9T1
# Protocol: [The source words this procedure for another target and reports this target under the same test.] (§1) Kinase assays. The compounds from the example above were tested for their ability to inhibit kinases. Recombinant human CDK2/cyclinA (PV3267), CDK1/cyclinB (PV3292), CDK5/p35 (PV3000) and Aurora A (PV3612) were purchased from Invitrogen (Carlsbad, Calif., USA). Kinase dosage and Z′-LYTE™ substrate for each kinase assay is as follows: CDK2/cyclinA-8 ng/reaction, Ser/Thr 12 Peptide; CDK1/cyclinB-0.8 ng/reaction, Ser/Thr 12 Peptide, CDK5/p35-0.8 ng/reaction, Ser/Thr 12 Peptide, and Aurora A-16 ng/reaction, Ser/Thr 1 Peptide. All enzymatic assays were performed using Z′-LYTE™ Kinase Assay Kits and were carried out following protocols provided by Invitrogen. To prepare stock solutions, compounds were dissolved at 10 mM in 100% DMSO and stored at 4° C. in amber glass vials. Enzyme reactions were initiated by adding recombinant enzyme and Z′-LYTE™ Ser/Thr peptide substrate and ATP mixture to 384-well plates containing diluted test compounds. Kinase and corresponding peptide substrate were incubated for 1 hr at room temperature in the presence of varying amounts of test compound with reaction buffer (20 μM ATP, […] [pH 7.5], 5 mM MgCl2, 0.5 mM EGTA, 0.005% Brij-35). Development buffer was added and incubated for another one hour at room temperature. Reactions were terminated by addition of stop buffer, and fluorescence emission intensity ratio 445 nm/520 nm (excited at 400 nm) was quantified by VICTOR-3 Multilabel Reader (Perkin-Elmer, Waltham, Mass., USA). Phosphorylation was calculated from the emission ratio. IC50 was determined using Sigmoid curve-fitting software Origin 6.0 (MicroCal, LLC, Northampton, Mass., USA).
# CDK1/cyclinB = target: T1, CDK1/cyclinB (Homo sapiens, UniProt P06493); assay: Z'-LYTE kinase assay CDK1/cyclinB; assay type: biochemical
# T1 construct: purchased Invitrogen PV3292
# Protocol: as §1
# PC-3M-luc = assay: 72 h MTT cell viability PC-3M-luc; assay type: cell-based; details: Homo sapiens
# Text: (§2) MIT cytotoxicity assay. The compounds of the invention were subjected to a standard cellular proliferation assay using human cell lines. HeLa cells (Human cervix adenocarcinoma cell line, ATCC NO, CCL-2); A549 cells (Human lung carcinoma cells line, ATCC NO, CCL-185); U2OS cells (Human osteosarcoma cell line, ATCC NO, HTB-96); Eca-109 cells (Human esophageal carcinoma cell line); HepG2 (Human hepatocellular liver carcinoma cell line, ATCC NO, HB-8065); K562 cells (Human chronic myelogenous leukemia cell line, ATCC NO, CCL-243); SK-MEL-28 (Human malignant melanoma cell line, ATCC NO, HTB-72); Molt-4 (Human acute lymphoblastic leukemia cell line, ATCC NO, CRL-1582); H460 (Human large cell lung cancer cell line, ATCC NO, HTB-177); MDA-MB-231 (Human breast adenocarcinoma cell line, ATCC NO, HTB-26); MCF7 (Human breast adenocarcinoma cell line, ATCC NO, HTB-22); ACHN (Human renal cell adenocarcinoma cell line, ATCC NO, CRL-1611); PC-3M (Human prostate adenocarcinoma cell line, ATCC NO CRL-1435); HL60 (Human acute promyelocytic leukemia cell line, ATCC NO, CCL-240); THP-1 (Human acute monocytic leukemia, ATCC NO, TIB-202); Jurkat (Human acute T cell leukemia cell line, ATCC NO, CRL-2063); HCT-116 (Human colorectal carcinoma cell line, ATCC NO, CCL-247); HT-29 (Human colorectal adenocarcinoma cell line, ATCC NO, HTB-38™); WI-38 (Human normal lung cell line, ATCC NO, CCL-75); MRC-5 (Human normal lung cell line, ATCC NO, CCL-171).
# (§3) HepG2, MDA-MB-231, WI-38 and MRC-5 cells were obtained from Shanghai Institute of Cell Biology, Chinese Academy of Sciences (Shanghai 200031, China). A549, HeLa, K562, MCF7, ACHN, H460, U2OS, Eca-109, MCF7, HL60, THP-1, Jurkat, HCT-116, HT-29, PC-3M, SK-MEL-28, Molt-4, H460 and […] cells were purchased from ATCC (American Type Culture Collection, USA).
# (§4) Standard 72 h MTT (thiazolye blue; 3-[4,5-dimethylthiazol-2-yl]-2,5-diphenyltetrazolium bromide) assays were performed. Briefly, the cell lines used in this study were recovered and cultured according to the conditions recommended. 4000 cells per well were seeded into 96-well plates according to doubling time and incubated overnight at 37° C. Compounds were prepared in DMSO and a ½ dilution series in 100 μl cell culture media, added to cells (in duplicates) with the final DMSO concentration of 0.025%, and incubated for 72 hrs at 37° C. MTT solution (5 mg/ml) was added at 10 μl per well and incubated in the dark at 37° C. for 4 hr. Culture medium and MTT solution was removed. MTT dye was solubilised with 100 μl per well of DMSO with agitation. Absorbance was read at 562 nm and data analyzed using Sigmoid curve-fitting software Origin 6.0 (MicroCal, LLC, USA) to determine IC50 value.
# MCF7 = assay: 72 h MTT cytotoxicity assay MCF7; assay type: cell-based; details: Homo sapiens; MCF7, 72 hrs
# Text: as §2, §3, §4
# U2OS cells = assay: 72 h MTT cytotoxicity assay U2OS; assay type: cell-based; details: Homo sapiens
# Text: as §2, §3, §4
# HepG2 = assay: 72 h MTT cytotoxicity assay HepG2; assay type: cell-based; details: Homo sapiens; HepG2, 72 hrs
# Text: as §2, §3, §4
# CDK2/cyclinA = target: T2, CDK2/cyclinA (Homo sapiens, UniProt P24941); assay: Z'-LYTE kinase assay CDK2/cyclinA; assay type: biochemical
# T2 construct: purchased Invitrogen PV3267
# Protocol: as §1
# A549 cells = assay: 72 h MTT cytotoxicity assay A549; assay type: cell-based; details: Homo sapiens; A549, 72 hrs
# Text: as §2, §3, §4
# HL-60 = assay: 72 h MTT cell viability HL-60; assay type: cell-based; details: Homo sapiens
# Text: as §2, §3, §4
# K562 cells = assay: 72 h MTT cytotoxicity assay K562; assay type: cell-based; details: Homo sapiens; K562, 72 hrs
# Text: as §2, §3, §4
# H460-luc = assay: 72 h MTT cytotoxicity assay H460-luc; assay type: cell-based; details: Homo sapiens, NCI-H460-Luc; H460-luc, 72 hrs; read-out: Cytotoxicity, MTT 72 hrs, IC50 H460-luc
# Text: as §2, §3, §4
# Molt-4-luc = assay: 72 h MTT cytotoxicity assay Molt-4-luc; assay type: cell-based; details: Homo sapiens
# Text: as §2, §3, §4
# Aurora B = Aurora B (Homo sapiens, UniProt Q96GD4); assay: Kinase assay Aurora B (Table I); assay type: biochemical
# Protocol: [The source words this procedure for another target and reports this target under the same test.] as §1
# HeLa cells = assay: 72 h MTT cytotoxicity assay HeLa; assay type: cell-based; details: Homo sapiens
# Text: as §2, §3, §4
# Aurora A = target: T3, Aurora A (Homo sapiens, UniProt O14965); assay: Z'-LYTE kinase assay Aurora A; assay type: biochemical
# T3 construct: purchased Invitrogen PV3612
# T3 sequence (O14965 1-403): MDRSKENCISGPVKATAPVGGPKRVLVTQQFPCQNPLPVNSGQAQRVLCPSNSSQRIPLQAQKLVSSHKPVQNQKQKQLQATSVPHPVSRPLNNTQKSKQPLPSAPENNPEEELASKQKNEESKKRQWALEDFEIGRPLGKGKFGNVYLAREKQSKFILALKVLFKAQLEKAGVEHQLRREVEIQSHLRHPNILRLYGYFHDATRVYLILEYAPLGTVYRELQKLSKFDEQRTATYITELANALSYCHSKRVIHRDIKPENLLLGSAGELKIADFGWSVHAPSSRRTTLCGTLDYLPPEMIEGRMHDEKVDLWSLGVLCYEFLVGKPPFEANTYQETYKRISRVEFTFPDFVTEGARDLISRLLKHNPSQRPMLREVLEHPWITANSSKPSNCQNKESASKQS
# Protocol: as §1
# MDA-MB-231-luc = assay: 72 h MTT cell viability MDA-MB-231-luc; assay type: cell-based; details: Homo sapiens
# Text: as §2, §3, §4
# CDK5/p35 = target: T4, CDK5/p35 (Homo sapiens, UniProt Q00535); assay: Z'-LYTE kinase assay CDK5/p35; assay type: biochemical
# T4 construct: purchased Invitrogen PV3000
# Protocol: as §1
# ACHN-luc = assay: 72 h MTT cell viability ACHN-luc; assay type: cell-based; details: Homo sapiens
# Text: as §2, §3, §4
# Eca-109 cells = assay: 72 h MTT cytotoxicity assay Eca-109; assay type: cell-based; details: Homo sapiens; Eca-109, 72 hrs
# Text: as §2, §3, §4
# SK-MEL-28-luc = assay: 72 h MTT cytotoxicity assay SK-MEL-28-luc; assay type: cell-based; details: Homo sapiens
# Text: as §2, §3, §4
# WI-38 = assay: 72 h MTT cell viability WI-38 (normal lung); assay type: cell-based; details: Homo sapiens; WI-38, normal lung cell line
# Text: as §2, §3, §4
# THP-1 = assay: 72 h MTT cell viability THP-1; assay type: cell-based; details: Homo sapiens, THP-1; read-out: Cell Viability IC50 THP-1
# Text: as §2, §3, §4
# TSSK1 = target: T5, TSSK1 (Homo sapiens, UniProt Q9BXA7); assay: Kinase assay TSSK1 (Table III); details: read-out: Target biochemical activity IC50 TSSK1
# T5 sequence (Q9BXA7 1-367): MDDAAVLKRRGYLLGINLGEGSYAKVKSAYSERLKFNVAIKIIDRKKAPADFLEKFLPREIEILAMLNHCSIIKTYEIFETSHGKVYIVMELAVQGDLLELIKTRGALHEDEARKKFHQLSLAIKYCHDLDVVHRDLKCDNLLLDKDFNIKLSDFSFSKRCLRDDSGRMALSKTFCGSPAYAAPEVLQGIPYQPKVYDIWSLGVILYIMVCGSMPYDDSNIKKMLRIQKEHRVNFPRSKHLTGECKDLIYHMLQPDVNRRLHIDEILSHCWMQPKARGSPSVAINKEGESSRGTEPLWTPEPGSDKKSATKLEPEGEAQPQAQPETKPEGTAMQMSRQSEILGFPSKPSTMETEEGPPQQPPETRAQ
# Protocol: (§5) Kinase assays. The compounds were tested for their ability to inhibit kinases.
# SRC = SRC (Homo sapiens, UniProt P12931); assay: Kinase assay SRC (Table III); details: read-out: Target biochemical activity IC50 SRC
# Protocol: as §5
# CDK7 = CDK7 (Homo sapiens, UniProt P50613); assay: Kinase assay CDK7 (Table III); details: read-out: Target biochemical activity IC50 CDK7
# Protocol: as §5
# CDK9 = CDK9 (Homo sapiens, UniProt P50750); assay: CDK9 inhibitory activity, kinase assays (Table III); details: read-out: Target biochemical activity IC50 CDK9
# Protocol: as §5
# [1] = read-out: Kinase inhibition, IC50 CDK1B
# [2] = read-out: Kinase inhibition, IC50 CDK2A
# [3] = read-out: Kinase inhibition, IC50 Aurora A
# [4] = read-out: Kinase inhibition, IC50 CDK5/p35
# T1 sequence (P06493 whole entry): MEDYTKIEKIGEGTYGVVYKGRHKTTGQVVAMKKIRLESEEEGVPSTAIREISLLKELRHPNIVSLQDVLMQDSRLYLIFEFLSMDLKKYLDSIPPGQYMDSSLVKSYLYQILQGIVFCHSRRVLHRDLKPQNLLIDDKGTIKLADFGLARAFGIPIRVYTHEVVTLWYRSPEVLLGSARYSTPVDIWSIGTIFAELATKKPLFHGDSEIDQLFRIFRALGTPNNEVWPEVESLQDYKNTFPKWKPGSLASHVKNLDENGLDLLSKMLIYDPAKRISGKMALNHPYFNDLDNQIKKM
# T1 sequence (P14635 whole entry partner): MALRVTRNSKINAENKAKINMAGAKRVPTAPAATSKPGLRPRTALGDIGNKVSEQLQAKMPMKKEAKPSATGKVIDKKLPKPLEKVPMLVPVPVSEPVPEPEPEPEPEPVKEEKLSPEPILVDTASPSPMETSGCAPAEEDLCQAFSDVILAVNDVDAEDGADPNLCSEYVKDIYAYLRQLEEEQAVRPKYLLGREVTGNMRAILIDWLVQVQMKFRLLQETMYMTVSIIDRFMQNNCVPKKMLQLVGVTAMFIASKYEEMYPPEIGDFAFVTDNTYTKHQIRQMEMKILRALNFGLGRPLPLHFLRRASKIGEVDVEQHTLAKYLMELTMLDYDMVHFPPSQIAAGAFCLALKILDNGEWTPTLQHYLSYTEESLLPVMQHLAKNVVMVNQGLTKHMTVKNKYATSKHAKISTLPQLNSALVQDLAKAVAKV
# T4 sequence (Q00535 whole entry): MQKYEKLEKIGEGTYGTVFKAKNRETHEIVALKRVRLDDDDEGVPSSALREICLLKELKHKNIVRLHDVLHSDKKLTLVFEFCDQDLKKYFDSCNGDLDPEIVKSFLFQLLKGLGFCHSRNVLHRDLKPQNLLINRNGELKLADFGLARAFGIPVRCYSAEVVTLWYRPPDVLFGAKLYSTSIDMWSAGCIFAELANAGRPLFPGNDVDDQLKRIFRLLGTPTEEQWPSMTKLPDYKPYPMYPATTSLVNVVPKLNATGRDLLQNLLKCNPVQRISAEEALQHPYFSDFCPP
# T4 sequence (Q15078 whole entry partner): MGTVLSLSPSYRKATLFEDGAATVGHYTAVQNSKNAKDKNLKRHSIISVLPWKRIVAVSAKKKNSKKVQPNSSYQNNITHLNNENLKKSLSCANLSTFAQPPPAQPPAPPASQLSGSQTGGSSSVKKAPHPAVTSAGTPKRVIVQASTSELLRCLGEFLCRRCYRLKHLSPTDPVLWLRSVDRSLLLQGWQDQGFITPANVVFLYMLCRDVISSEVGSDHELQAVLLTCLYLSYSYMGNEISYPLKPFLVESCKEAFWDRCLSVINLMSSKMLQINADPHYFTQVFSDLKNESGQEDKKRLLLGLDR
# CDK9T1, sequence (P50750 whole entry): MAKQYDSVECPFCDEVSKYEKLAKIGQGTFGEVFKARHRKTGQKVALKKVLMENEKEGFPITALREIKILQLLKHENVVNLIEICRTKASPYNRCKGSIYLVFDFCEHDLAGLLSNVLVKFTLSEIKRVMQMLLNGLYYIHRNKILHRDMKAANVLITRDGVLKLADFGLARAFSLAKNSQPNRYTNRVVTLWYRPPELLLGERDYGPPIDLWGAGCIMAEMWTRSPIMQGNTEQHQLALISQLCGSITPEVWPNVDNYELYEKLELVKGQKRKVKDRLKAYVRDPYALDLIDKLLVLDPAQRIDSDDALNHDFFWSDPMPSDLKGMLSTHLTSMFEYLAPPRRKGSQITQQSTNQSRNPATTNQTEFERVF
# CDK9T1, sequence (O60563 whole entry partner): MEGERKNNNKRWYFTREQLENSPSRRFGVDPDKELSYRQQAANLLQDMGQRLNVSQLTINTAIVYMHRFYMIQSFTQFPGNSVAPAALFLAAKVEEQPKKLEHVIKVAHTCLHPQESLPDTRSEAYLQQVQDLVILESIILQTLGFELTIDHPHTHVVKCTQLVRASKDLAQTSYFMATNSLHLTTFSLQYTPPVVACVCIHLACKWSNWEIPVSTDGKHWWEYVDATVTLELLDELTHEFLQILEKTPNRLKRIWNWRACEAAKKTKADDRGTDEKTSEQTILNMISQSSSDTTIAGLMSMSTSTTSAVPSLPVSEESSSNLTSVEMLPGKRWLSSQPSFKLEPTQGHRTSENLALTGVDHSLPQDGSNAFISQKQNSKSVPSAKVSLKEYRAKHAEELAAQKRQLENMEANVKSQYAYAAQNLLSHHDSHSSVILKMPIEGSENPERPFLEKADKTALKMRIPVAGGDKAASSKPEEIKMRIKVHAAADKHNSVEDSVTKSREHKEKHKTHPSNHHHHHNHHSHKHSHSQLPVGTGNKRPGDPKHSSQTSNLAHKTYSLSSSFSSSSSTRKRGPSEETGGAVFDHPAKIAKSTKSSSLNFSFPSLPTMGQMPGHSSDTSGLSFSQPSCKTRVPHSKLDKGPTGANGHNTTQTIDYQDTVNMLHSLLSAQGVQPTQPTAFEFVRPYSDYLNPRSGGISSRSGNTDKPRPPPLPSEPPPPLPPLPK
# Aurora B, sequence (Q96GD4 whole entry): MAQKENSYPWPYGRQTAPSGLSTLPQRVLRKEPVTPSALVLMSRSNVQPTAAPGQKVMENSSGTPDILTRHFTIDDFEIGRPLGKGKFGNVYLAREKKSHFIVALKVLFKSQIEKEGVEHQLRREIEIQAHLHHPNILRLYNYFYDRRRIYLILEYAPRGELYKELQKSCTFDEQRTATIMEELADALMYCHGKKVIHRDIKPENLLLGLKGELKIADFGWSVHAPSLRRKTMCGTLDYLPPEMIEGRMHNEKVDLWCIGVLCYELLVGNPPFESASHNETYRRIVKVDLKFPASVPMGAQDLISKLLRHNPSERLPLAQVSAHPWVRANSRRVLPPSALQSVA
# CDK7, sequence (P50613 whole entry, species assumed): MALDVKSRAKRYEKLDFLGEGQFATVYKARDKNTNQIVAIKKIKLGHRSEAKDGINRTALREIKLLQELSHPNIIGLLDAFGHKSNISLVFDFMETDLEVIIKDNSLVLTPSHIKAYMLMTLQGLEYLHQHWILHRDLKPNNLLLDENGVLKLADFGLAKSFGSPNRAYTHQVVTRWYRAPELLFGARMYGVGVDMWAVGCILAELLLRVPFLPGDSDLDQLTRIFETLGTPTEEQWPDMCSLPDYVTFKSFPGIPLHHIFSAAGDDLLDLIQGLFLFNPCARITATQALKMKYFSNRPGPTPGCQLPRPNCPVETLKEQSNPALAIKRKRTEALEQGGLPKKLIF
# CDK7, sequence (P51946 whole entry partner, species assumed): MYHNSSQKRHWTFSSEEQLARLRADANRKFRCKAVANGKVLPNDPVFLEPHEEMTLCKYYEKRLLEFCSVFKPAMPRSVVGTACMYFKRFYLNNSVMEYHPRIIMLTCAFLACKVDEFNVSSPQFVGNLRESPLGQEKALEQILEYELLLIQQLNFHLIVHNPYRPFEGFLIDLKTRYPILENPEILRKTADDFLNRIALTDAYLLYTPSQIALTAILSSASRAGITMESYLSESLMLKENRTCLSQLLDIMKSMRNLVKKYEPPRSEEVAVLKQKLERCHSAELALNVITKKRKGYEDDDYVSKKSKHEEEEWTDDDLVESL
# CDK7, sequence (P51948 whole entry partner, species assumed): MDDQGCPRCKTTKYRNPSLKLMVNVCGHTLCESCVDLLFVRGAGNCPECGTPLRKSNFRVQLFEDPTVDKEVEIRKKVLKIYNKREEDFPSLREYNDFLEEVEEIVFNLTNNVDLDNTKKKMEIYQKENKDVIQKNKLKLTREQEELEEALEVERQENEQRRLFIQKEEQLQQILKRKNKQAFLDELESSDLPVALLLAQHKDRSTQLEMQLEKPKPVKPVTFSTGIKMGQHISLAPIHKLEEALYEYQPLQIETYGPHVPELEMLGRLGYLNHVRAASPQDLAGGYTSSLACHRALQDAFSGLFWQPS
# CDK9, sequence (P50750 whole entry, species assumed): as the sequence (P50750 whole entry) above
# CDK9, sequence (O60563 whole entry partner, species assumed): as the sequence (O60563 whole entry partner) above
# SRC, sequence (P12931 whole entry, species assumed): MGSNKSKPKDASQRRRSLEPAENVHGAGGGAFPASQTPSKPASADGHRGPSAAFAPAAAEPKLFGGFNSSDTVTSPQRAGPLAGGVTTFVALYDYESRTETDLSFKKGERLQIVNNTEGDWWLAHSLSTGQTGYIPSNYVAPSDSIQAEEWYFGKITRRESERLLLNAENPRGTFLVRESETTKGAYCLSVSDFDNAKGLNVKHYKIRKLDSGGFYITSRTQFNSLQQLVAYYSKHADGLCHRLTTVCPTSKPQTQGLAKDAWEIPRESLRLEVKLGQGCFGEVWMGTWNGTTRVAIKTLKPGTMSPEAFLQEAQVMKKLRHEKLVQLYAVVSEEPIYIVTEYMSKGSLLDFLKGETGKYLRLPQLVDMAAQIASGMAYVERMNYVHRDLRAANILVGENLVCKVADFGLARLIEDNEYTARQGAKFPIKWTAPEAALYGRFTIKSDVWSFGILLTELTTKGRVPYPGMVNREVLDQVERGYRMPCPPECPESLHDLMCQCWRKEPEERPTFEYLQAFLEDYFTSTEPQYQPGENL
smiles,measurement,setting,value
"CCCn1cc(-c2ccnc(Nc3ccc(S(N)(=O)=O)cc3)n2)c2nc(Cl)cc(C)c21 [Compound 39, 4-(4-(5-Chloro-7-methyl-1-propyl-1H-pyrrolo[3,2-b]pyridin-3-yl)pyrimidin-2-ylamino)benzenesulfonamide]",IC50,CDK9T1,57 nM
same,IC50,CDK1/cyclinB; [1],> 10000 nM
same,IC50,PC-3M-luc,> 10000 nM
same,IC50,MCF7,> 10000 nM
same,IC50,U2OS cells,1260 nM
same,IC50,HepG2,100 nM
same,IC50,CDK2/cyclinA; [2],1670 nM
same,IC50,A549 cells,420 nM
same,IC50,HL-60,1270 nM
same,IC50,K562 cells,4720 nM
same,IC50,H460-luc,1030 nM
same,IC50,Molt-4-luc,5250 nM
same,IC50,"Aurora B; read-out: Kinase inhibition, IC50 Aurora B",320 nM
same,IC50,HeLa cells,3300 nM
same,IC50,Aurora A; [3],620 nM
same,IC50,MDA-MB-231-luc,2030 nM
same,IC50,CDK5/p35; [4],> 10000 nM
same,IC50,ACHN-luc,13700 nM
same,IC50,Eca-109 cells,3700 nM
same,IC50,SK-MEL-28-luc,3410 nM
"CCn1cc(-c2ccnc(Nc3cccc(S(N)(=O)=O)c3)n2)c2ccnc(Cl)c21 [Compound 73, 3-(4-(7-Chloro-1-ethyl-1H-pyrrolo[2,3-c]pyridin-3-yl)pyrimidin-2-ylamino)benzenesulfonamide]",IC50,CDK9T1,24 nM
same,IC50,CDK1/cyclinB; [1],180 nM
same,IC50,PC-3M-luc,890 nM
same,IC50,U2OS cells,410 nM
same,IC50,HepG2,180 nM
same,IC50,CDK2/cyclinA; [2],3.8 nM
same,IC50,A549 cells,370 nM
same,IC50,WI-38,> 10000 nM
same,IC50,HL-60,430 nM
same,IC50,H460-luc,315 nM
same,IC50,Molt-4-luc,430 nM
same,IC50,Aurora A; [3],1280 nM
same,IC50,MDA-MB-231-luc,440 nM
same,IC50,CDK5/p35; [4],190 nM
same,IC50,ACHN-luc,510 nM
same,IC50,THP-1,2740 nM
same,IC50,Eca-109 cells,> 10000 nM
same,IC50,SK-MEL-28-luc,490 nM
CCn1cc(-c2ccnc(Nc3ccc(O)cc3)n2)c2ccnc(Cl)c21 [SG49],IC50,"CDK1/cyclinB; Table III, read-out: Target biochemical activity IC50 CDK1",190 nM
same,IC50,TSSK1,1490 nM
same,IC50,"CDK2/cyclinA; Table III, read-out: Target biochemical activity IC50 CDK2",16 nM
same,IC50,SRC,4560 nM
same,IC50,CDK7,> 10000 nM
same,IC50,"Aurora B; Table III, read-out: Target biochemical activity IC50 Aurora B",> 10000 nM
same,IC50,CDK9,95 nM
same,IC50,"Aurora A; Table III, read-out: Target biochemical activity IC50 Aurora A",2460 nM
same,IC50,"CDK5/p35; Table III, read-out: Target biochemical activity IC50 CDK5",350 nM
